Laboratory results as given in article PMC5457276, “Influence of Amphibian Antimicrobial Peptides and Short Lipopeptides on Bacterial Biofilms Formed on Contact Lenses” (Materials, 2016).
Read-outs that look alike come from different tables or passages of the source. Where a SMILES comes first, the peptide text is derived from it. Where no end group is shown, it is not given here. The star is where a group is joined. Palmitoyl = CCCCCCCCCCCCCCCC(=O)*

Tests used:
[1] = tested on: Staphylococcus epidermidis ATCC 14990; assay type: cell-based; conditions: S. epidermidis; same MIC in μM (in brackets); broth microdilution, MHB II, overnight at 37 °C, triplicate
Protocol: (§1) All selected strains were obtained from the Polish Collection of Microorganisms (Polish Academy of Science, Wroclaw, Poland). Four Gram-positive and three Gram-negative strains linked with CL-related infections lenses were tested (Table 5). The microorganisms were cultured in a Mueller Hinton Broth II (MHB, Biocorp, Warsaw, Poland) overnight, at 37 °C.
(§2) Peptide susceptibility tests on the reference bacterial strains were performed with the following procedures recommended by the Clinical and Laboratory Standard Institute (CLSI). The activity of five peptides was tested on the Mueller Hinton Broth II (Biocorp, Warsaw, Poland) using broth microdilution method on polystyrene 96-well plates (Kartell, Noviglio, Italy). […] The plates were incubated overnight at 37 °C. MIC was assumed as the lowest concentration at which bacterial growth was no longer visible. All experiments were performed in triplicate.

[2] = tested on: Staphylococcus aureus ATCC 25923; assay type: cell-based; conditions: S. aureus; same MIC in μM (in brackets); broth microdilution, MHB II, overnight at 37 °C, triplicate
Protocol: as §1, §2

[3] = tested on: Escherichia coli ATCC 25922; assay type: cell-based; conditions: E. coli; same MIC in μM (in brackets); broth microdilution, MHB II, overnight at 37 °C, triplicate
Protocol: as §1, §2

[4] = tested on: Pseudomonas aeruginosa ATCC 9027; assay type: cell-based; conditions: P. aeruginosa; same MIC in μM (in brackets); broth microdilution, MHB II, overnight at 37 °C, triplicate
Protocol: as §1, §2

[5] = tested on: Streptococcus pyogenes PCM 465; assay type: cell-based; conditions: S. pyogenes; same MIC in μM (in brackets); broth microdilution, MHB II, overnight at 37 °C, triplicate
Protocol: as §1, §2

[6] = tested on: Streptococcus pneumoniae ATCC 49619; assay type: cell-based; conditions: S. pneumoniae; same MIC in μM (in brackets); broth microdilution, MHB II, overnight at 37 °C, triplicate
Protocol: as §1, §2

HaCaT cells = conditions: cited from earlier work
From the text: Our data reveal that AMPs might be promising antibacterial additives to CL solutions. However there are certain limitations and issues which need to be considered. The long-time stability of compounds in a water solution needs to be examined, but first of all the evaluation of toxicity towards human eye cells needs to be carried out. In the previous study tested amphibian peptides turned out to be safe towards HaCaT cells at their microbiologically-active concentrations. […] Considering the potenti ...

[7] = tested on: biofilms formed by Gram-positive bacteria on contact lenses; experiment: Biofilm assay on contact lenses (MBEC), summary over Gram-positive strains; assay type: cell-based
Protocol: as §1
(§3) The CL and CL solutions used are commercially available. One-day CL (1-Day Acuvue Moist) containing Etafilcon A were obtained from Johnson and Johnson Vision Care (Jacksonsville, FL, USA). Four popular CL solutions were also tested (Table 6).
(§4) Biofilms of strains related with ocular infections were cultured on CL placed in polystyrene 24-well plates (Orange Scientific, Braine-l’Alleud, Belgium). Biomaterials were incubated at 37 °C in bacterial suspension in the Mueller Hinton Broth II (Biocorp, Warsaw, Poland) at initial inoculums of ca. 5 × 10^5 CFU/mL. After 24 h of incubation all of the CL were rinsed three times with a sterile phosphate buffer (AppliChem, Darmstadt, Germany). The lenses were then transferred into new wells with fresh MHB II. One-day biofilms were exposed to a pre-determined range of peptides concentration. […] Anti-biofilm activity of selected peptides was visualized using a cell-viability reagent, Resazurin (Sigma Aldrich, St. Louis, MO, USA). Upon contact with living cells the dye is metabolized by bacterial dehydrogenases resulting in the reduction of the blue resazurin to a pink resorufin. Positive controls contained CL immersed in bacterial suspensions without antimicrobials, while CL in a sterile culture medium served as negative controls. The minimum biofilm eradication concentration (MBEC) was read after a one-hour incubation with Resazurin (final concentration per sample = 0.005%) MBEC was determined as the lowest concentration at which the reduction of resazurin was lower or equal (10% ± 0.5%) as compared to positive (100%) and negative (0%) controls. All experiments were performed in triplicate.

[8] = tested on: Streptococcus pyogenes PCM 465 biofilm on contact lenses; experiment: Biofilm assay on contact lenses (MBEC, resazurin); assay type: cell-based; conditions: S. pyogenes, triplicate
Protocol: as §1, §3, §4

[9] = tested on: Streptococcus pneumoniae ATCC 49619 biofilm on contact lenses; experiment: Biofilm assay on contact lenses (MBEC, resazurin); assay type: cell-based; conditions: S. pneumoniae, triplicate
Protocol: as §1, §3, §4

[10] = tested on: Staphylococcus aureus ATCC 25923 biofilm on contact lenses; experiment: Biofilm assay on contact lenses (MBEC, resazurin); assay type: cell-based; conditions: S. aureus, triplicate
Protocol: as §1, §3, §4

[11] = tested on: Staphylococcus epidermidis ATCC 14990 biofilm on contact lenses; experiment: Biofilm assay on contact lenses (MBEC, resazurin); assay type: cell-based; conditions: S. epidermidis, triplicate
Protocol: as §1, §3, §4

[12] = tested on: Escherichia coli ATCC 25922 biofilm on contact lenses; assay type: cell-based; conditions: for Concentration eradicating E. coli biofilms (MBEC): ATCC 25922, 24 h; for Minimum biofilm eradication concentration (reduction of resazurin ≤10% ± 0.5%): E. coli, triplicate
Protocol: as §1, §3, §4

[13] = tested on: Pseudomonas aeruginosa ATCC 9027 biofilm on contact lenses; assay type: cell-based; conditions: for Minimum biofilm eradication concentration (reduction of resazurin ≤10% ± 0.5%): P. aeruginosa, triplicate; for Concentration eliminating P. aeruginosa from the lens surface (MBEC): ATCC 9027, 24 h
Protocol: as §1, §3, §4

[14] = tested on: planktonic bacteria, all tested strains; experiment: Minimum inhibitory concentration, summary over all tested strains; assay type: cell-based; conditions: summary of Table 1
Protocol: as §1, §2

[15] = 25 °C, one-day biofilm on contact lens (Etafilcon A), 24 h exposure in MHB II, resazurin read-out
[16] = 25 °C, same MBEC in μM (in brackets), biofilm on contact lens, 24 h exposure
[17] = 37 °C, one-day biofilm on contact lens (Etafilcon A), 24 h exposure in MHB II, resazurin read-out
[18] = 37 °C, same MBEC in μM (in brackets), biofilm on contact lens, 24 h exposure

| Compound | Minimum inhibitory concentration [1] | Minimum inhibitory concentration [2] | Minimum inhibitory concentration [3] | Minimum inhibitory concentration [4] | Minimum inhibitory concentration [5] | Minimum inhibitory concentration [6] | Minimum biofilm eradication concentration (reduction of resazurin ≤10% ± 0.5%) [8, 15] [µg/mL] | Minimum biofilm eradication concentration (reduction of resazurin ≤10% ± 0.5%) [8, 16] | Minimum biofilm eradication concentration (reduction of resazurin ≤10% ± 0.5%) [8, 17] [µg/mL] | Minimum biofilm eradication concentration (reduction of resazurin ≤10% ± 0.5%) [8, 18] | Minimum biofilm eradication concentration (reduction of resazurin ≤10% ± 0.5%) [9, 15] [µg/mL] | Minimum biofilm eradication concentration (reduction of resazurin ≤10% ± 0.5%) [9, 16] | Minimum biofilm eradication concentration (reduction of resazurin ≤10% ± 0.5%) [9, 17] [µg/mL] | Minimum biofilm eradication concentration (reduction of resazurin ≤10% ± 0.5%) [9, 18] | Minimum biofilm eradication concentration (reduction of resazurin ≤10% ± 0.5%) [10, 15] [µg/mL] | Minimum biofilm eradication concentration (reduction of resazurin ≤10% ± 0.5%) [10, 16] | Minimum biofilm eradication concentration (reduction of resazurin ≤10% ± 0.5%) [10, 17] [µg/mL] | Minimum biofilm eradication concentration (reduction of resazurin ≤10% ± 0.5%) [10, 18] | Minimum biofilm eradication concentration (reduction of resazurin ≤10% ± 0.5%) [11, 15] [µg/mL] | Minimum biofilm eradication concentration (reduction of resazurin ≤10% ± 0.5%) [11, 16] | other results |
| --- | --- | --- | --- | --- | --- | --- | --- | --- | --- | --- | --- | --- | --- | --- | --- | --- | --- | --- | --- | --- | --- |
| CCCCCCCCCCCCCCCC(=O)N[C@@H](CCCCN)C(=O)N[C@@H](CCCCN)C(N)=O [Palm-KK-NH2] | (5.4) μM | (10.8) μM | (10.8) μM | (21.7) μM | (21.7) μM | (10.8) μM | 32 | (43.3) μM | 512 | (693.0) μM | 64 | (86.6) μM | 64 | (86.6) μM | 32 | (43.3) μM | 64 | (86.6) μM | 32 | (43.3) μM | Toxicity towards HaCaT cells / human keratinocytes (in words) (HaCaT cells): high toxicity; Concentrations eradicating biofilms formed by Gram-positive bacteria (MBEC) ([7]; at 37 °C): 32 to 512 µg/mL; Concentrations eradicating biofilms formed by Gram-positive bacteria (MBEC) ([7]; printed "below 25 °C"): 32 to 64 µg/mL; Minimum biofilm eradication concentration (reduction of resazurin ≤10% ± 0.5%) [11, 17]: 32 µg/mL; Minimum biofilm eradication concentration (reduction of resazurin ≤10% ± 0.5%) [11, 18]: (43.3) μM; Concentration eradicating E. coli biofilms (MBEC) [12]: 256 µg/mL; Minimum biofilm eradication concentration (reduction of resazurin ≤10% ± 0.5%) [12, 15]: 256 µg/mL; Minimum biofilm eradication concentration (reduction of resazurin ≤10% ± 0.5%) [12, 16]: (346.5) μM; Minimum biofilm eradication concentration (reduction of resazurin ≤10% ± 0.5%) [12, 17]: 256 µg/mL; Minimum biofilm eradication concentration (reduction of resazurin ≤10% ± 0.5%) [12, 18]: (346.5) μM; Minimum biofilm eradication concentration (reduction of resazurin ≤10% ± 0.5%) [13, 15]: >512 µg/mL; Minimum biofilm eradication concentration (reduction of resazurin ≤10% ± 0.5%) [13, 16]: (>693.0) μM; Minimum biofilm eradication concentration (reduction of resazurin ≤10% ± 0.5%) [13, 17]: >512 µg/mL; Minimum biofilm eradication concentration (reduction of resazurin ≤10% ± 0.5%) [13, 18]: (>693.0) μM |
| CCCCCCCCCCCCCCCC(=O)N[C@@H](CCCNC(=N)N)C(=O)N[C@@H](CCCNC(=N)N)C(N)=O [Palm-RR-NH2] (Palmitoyl-Arg-Arg-NH2) | (5.0) μM | (10.1) μM | (20.1) μM | (40.3) μM | (20.1) μM | (5.0) μM | 128 | (161.0) μM | >512 | (>644.1) μM | 64 | (80.5) μM | 32 | (40.3) μM | 128 | (161.0) μM | 256 | (322.1) μM | 64 | (80.5) μM | Minimum biofilm eradication concentration (reduction of resazurin ≤10% ± 0.5%) [11, 17]: 32 µg/mL; Minimum biofilm eradication concentration (reduction of resazurin ≤10% ± 0.5%) [11, 18]: (40.3) μM; Minimum biofilm eradication concentration (reduction of resazurin ≤10% ± 0.5%) [12, 15]: 256 µg/mL; Minimum biofilm eradication concentration (reduction of resazurin ≤10% ± 0.5%) [12, 16]: (322.1) μM; Minimum biofilm eradication concentration (reduction of resazurin ≤10% ± 0.5%) [12, 17]: 512 µg/mL; Minimum biofilm eradication concentration (reduction of resazurin ≤10% ± 0.5%) [12, 18]: (644.1) μM; Minimum biofilm eradication concentration (reduction of resazurin ≤10% ± 0.5%) [13, 15]: >512 µg/mL; Minimum biofilm eradication concentration (reduction of resazurin ≤10% ± 0.5%) [13, 16]: (>644.1) μM; Minimum biofilm eradication concentration (reduction of resazurin ≤10% ± 0.5%) [13, 17]: >512 µg/mL; Minimum biofilm eradication concentration (reduction of resazurin ≤10% ± 0.5%) [13, 18]: (>644.1) μM |
| FLPLIGRVLSGIL-NH2 [Temporin A, reference compound] |  |  |  |  |  |  |  |  |  |  |  |  |  |  |  |  |  |  |  |  | Concentration eliminating P. aeruginosa from the lens surface (MBEC) [13]: 512 µg/mL |
| GIGKFLKKAKKFGKAFVKILKK-NH2 [Pexiganan] |  |  |  |  |  |  |  |  |  |  |  |  |  |  |  |  |  |  |  |  | Concentrations inhibiting bacterial growth (MIC), range over all tested strains [14]: 1 to 8 µg/mL |
| GLFDVIKKVASVIGGL-NH2 [Citropin 1.1, reference compound] |  |  |  |  |  |  |  |  |  |  |  |  |  |  |  |  |  |  |  |  | MBEC values, range over Gram-positive strains ([7]; both temperatures (25 °C and 37 °C)): 16 to 64 µg/mL; Concentration eradicating E. coli biofilms (MBEC) [12]: 128 to 256 µg/mL; Concentration eliminating P. aeruginosa from the lens surface (MBEC) [13]: 512 µg/mL |
